Experimental data: US20250179029A1, “DEUTERATED RETINOIDAL COMPOUNDS AND SYNTHESIS AND USES THEREOF” (UNIVERSITY OF MARYLAND, BALTIMORE, priority 2022, published 2025)

Experiments:
MCF7 = assay: MTT antiproliferative assay, MCF7 non-TNBC cells; type: cell-based; conditions: mean of three independent experiments
Method: (§1) Compounds 2, 4, 8 and 9, as well as paclitaxel (PTX) were evaluated over a range of concentrations to examine their antiproliferative activities against two non-TNBC cell lines, MCF7 and SKBR3using the well-established 3-(4,5-dimethylthiazolyl-2)-2,5-diphenyl tetrazolium bromide (MTT) assay.^48,55,56 The parent non-deuterated VNLG-152R (Compound 2) was used as the positive control.
(§2) As presented in Table 1 below, the GI50 values of the deuterated Compounds 4, 8 and 9 against the MCF7 cell are identical to the GI50 value of the parent protio VNLG-152R (Compound 2). In contrast, the SKBR3 cell appears to be more sensitive to the deuterated compounds compared to the parent non-deuterated VNLG-152R (Compound 2). The reason for this difference is not understood at this time. The applicant hypothesizes that the enhanced diffusion of these deuterated molecules across the cell membrane of this cell line may result in enhanced intracellular concentrations and inhibition of its proliferation. Each data point is a mean of replicates from three independent experiments.

SKBR3 = assay: MTT antiproliferative assay, SKBR3 non-TNBC cells; type: cell-based; conditions: mean of three independent experiments
Method: as §1, §2

[1] = system: Mnk1, peIF4E, eIF4E, cyclin D1, Bcl-2, Bax in MDA-MB-231 cells; assay: Western blotting of Mnk1 and downstream targets in MDA-MB-231 cells; type: cell-based, human; conditions: MDA-MB-231, 5, 10 and 20 µM, 24 h, Western blot
Description: The applicant had previously reported that the antiproliferative effects of Compound 1 and our other Mnk1/2 degraders in breast cancer cells was due to degradation of Mnk1/2 with consequent depletion of peIF4E and modulation of the downstream molecular targets.^48,55,56 Thus, the deuterated analogs were further examined for their effects on the degradation of Mnk1 and the other related downstream molecular targets in both MDA-MB-231 and MDA-MB-468 TNBC cells by Western blotting analysis.
The human breast cancer cell lines, MDA-MB-231, MDA-MB-468 were procured from ATCC (Manassas, VA) and cultured in the recommended media supplemented with 10% heat-inactivated standard fetal bovine serum (FBS, GIBCO) and 1% penicillin-streptomycin (10,000 U/ml, Life Technologies) at 37° C. and 5% CO2. Primary antibodies against Mnk1, eIF4E, p-eIF4E, Cyclin D1, BCL2, BAX, β-actin, and secondary RP-conjugated anti-rabbit used in the study were procured from Cell Signaling Technology, USA. Cells were lysed with radioimmunoprecipitation assay (RIPA) buffer supplemented with 1× protease inhibitors (Roche, Indianapolis, IN, USA), phosphatase inhibitors (Thermo Scientific, Waltham, MA, USA), 1 mmol/L EDTA and 1 mmol/L PMSF (Sigma) and immunoblotting analyses were performed as described previously.^48,64
The non-deuterated VNLG-152R (Compound 2) and the vehicle, DMSO were used as positive and negative controls, respectively. Equal protein concentrations from breast cancer cells treated with the compounds at different concentration (5, 10 and 20 µM) for 24 h were separated by SDS-PAGE and Western blots probed with the respective protein antibodies. Vehicle treated cells were included as a control, and all blots were reprobed for R-actin for loading control.

[2] = Plasma pharmacokinetics after single oral dose in female CD-1 mice; type: in vivo
Method: The PK study was performed by the Certified Research Organization (CRO), Aragen Life Sciences Private Limited (Aragen), Hyderabad, India. All procedures of the present study were in accordance with the guidelines provided by the Committee for the Purpose of Control and Supervision of Experiments on Animals (CPCSEA) as published in The Gazette of India, Jan. 7, 2010. CPCSEA renewal number for institute is 1125/PO/Rc/S/CPCSEA on 13Feb. 2014. Institutional Animal Ethics Committee (IAEC) approval has been taken to initiate the study (IAEC Approval Number: B-011A). The details are presented in the Supplementary Materials.
To minimize the number of mice used in the PK study using a validated LC/MS/MS analysis, both individual (discrete) (set #1: Compound 5, EM=463.2937 and set #2: […], EM=463.2937) and cassette (set #3: Compounds 2, 3, and 7; EMs=459.2686, 462.2874 and 466.3125, respectively, and set #4: Compounds 4, 8, and 9; EMs=460.2749, 464.2999 and 467.3188, respectively) dosing were used.^59,66 The four sets studied were dictated by the exact molecular masses of the compounds as indicated above and in FIG. 3.
The plasma PK profiles were obtained after single oral (PO) dosing of the compounds in mice.
In Table 2, data are presented as the mean of values obtained from three female CD-1 mice. Cmax is the maximum observed plasma concentration. Tmax is the time to maximum concentration. T1/2 is the elimination half-life. AUC represents AUC (0-∞), which is the area under the concentration-time curve from time of dosing extrapolated to infinity. MRT refers to mean residence time. The number in parentheses indicate the rank order from best (1) to worst (8).

[3] = system: MDA-MB-231 tumor xenograft; assay: Anti-tumor activity in MDA-MB-231 xenograft mouse model; type: in vivo; conditions: 20 mg/kg, PO, 5 days/week, 16 days
Method: (§3) FIGS. 13A-13D show the anti-tumor activity of VNLG-152R, Compound 4, Compound 8, and Compound 9 in xenograft mouse models. […] In FIGS. 13B and 13D, *=p<0.0001.
(§4) After confirming the improved pharmacokinetic parameters of deuterated compounds 4, 8, and 9, the anti-tumor activity of these compounds was tested in xenograft models of MDA-MB-231 and MDA-MB-468. In both models, the mice for each group were treated with either vehicle (control) or the compounds, each at 20 mg/kg, PO, 5 days/week.

[4] = system: MDA-MB-468 tumor xenograft; assay: Anti-tumor activity in MDA-MB-468 xenograft mouse model; type: in vivo; conditions: 20 mg/kg, PO, 5 days/week, 16 days
Method: as §3, §4

[5] = system: Mnk1, peIF4E, cyclin D1 in MDA-MB-231 cells; assay: Western blotting of Mnk1 and downstream targets in MDA-MB-231 cells (mechanism study); type: cell-based, human; conditions: MDA-MB-231, 24 hours, FIG. 14B
Method: FIGS. 14A and 14B show the in vitro effects of VNLG-152R on synoviolin 1 (SYVN1) and other targets in MDA-MB-231 cells.
After confirming the anti-tumor effect of VNLG-152R, the molecular mechanism of VNLG-152R was studied, in order to help identify potential new molecular targets for treatment. Using an established procedure^70,71, a label-free proteomics analysis was conducted. MDA-MB-231 cells were treated for 24 hours with VNLG-152R in the concentrations indicated in FIGS. 14A and 14B, followed by Western blotting of whole cell lysates.

[6] = system: androgen-sensitive and castration-resistant human prostate cancer cells; conditions: androgen-sensitive and castration-resistant human prostate cancer cells in vitro; cited from earlier work
[7] = single p.o. dose 10 mg/kg, female CD-1 mice, plasma

CC1=C(/C=C/C(C)=C/C=C/C(C)=C/C(=O)Nc2ccc(F)cc2)C(C)(C)CCC1n1ccnc1 (racemic) [Compound 2, (±) 4-Imidazolyl-4(H)-(4′-fluoro(phenyl))-(E)-retinamide]
GI50 (MCF7): 350 ± 110 nM | GI50 (SKBR3): 260 ± 120 nM | expression of Mnk1 [1]: significantly and dose-dependently reduced | expression of peIF4E [1]: significantly and dose-dependently reduced | expression of total eIF4E [1]: without noticeable effects | clearance from systemic circulation (plasma concentration versus time profile) ([2]; single PO dosing, mice, FIGS. 12A-12C): could not be detected after 8 hours | AUC (0-∞) [2, 7]: 22764.75 ng·h/mL | MRT (mean residence time) [2, 7]: 3.02 h | T1/2 (elimination half-life) [2, 7]: 3.61 h | Tmax [2, 7]: 0.83 h | Cmax ([2]; single p.o. dose 10 mg/kg, female CD-1 mice, plasma, mean of three mice): 4651.88 ng/mL | reduction of tumor growth [3]: 87% | reduction of tumor growth [4]: 81% | Mnk1 level [5]: dose-dependent Mnk1 depletion | cyclin D1 level [5]: suppression | peIF4E level [5]: suppression | anti-proliferative and anti-metastatic activities [6]: potent
